# Source: US7932290B2, “Method for the treatment of metabolic disorders” (Wellstat Biologics Corporation, priority 2003, dated 2011)
# What was measured:
# Assay in all cases: Transcription activation potential, GAL4 luciferase reporter in C3A cells
# Format in all cases: cell-based
# [1] = molecular target: T1, Human PPARα LBD fusion protein (Homo sapiens, UniProt Q07869)
# T1 construct: a.a; 167-468)
# T1 sequence (Q07869 167-468): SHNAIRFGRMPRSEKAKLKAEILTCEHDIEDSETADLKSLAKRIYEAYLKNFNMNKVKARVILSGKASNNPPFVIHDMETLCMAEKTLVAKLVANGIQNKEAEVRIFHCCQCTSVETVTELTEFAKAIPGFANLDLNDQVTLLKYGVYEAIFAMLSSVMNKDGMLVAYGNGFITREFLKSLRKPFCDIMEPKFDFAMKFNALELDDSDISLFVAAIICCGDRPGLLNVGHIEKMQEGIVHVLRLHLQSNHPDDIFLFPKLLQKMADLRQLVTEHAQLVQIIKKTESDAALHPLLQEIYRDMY
# Method: (§1) Cells were seeded in 24 well plates the day prior to transfection at 5×10^4−2×10^5 cells/well, depending upon cell type. Cells were transfected using Lipofectamine 2000 reagent from Invitrogen. A total of 0.8 μg DNA/well was added to 50 μL of Optimem Reduced Serum media (serum free; Gibco). Lipofectamine 2000 was added (2.5 μL/well) to another tube containing 50 μL of Optimem media. Plasmid DNA was added at a ratio of 4:3 (reporter:activator); where appropriate, salmon sperm DNA was substituted for activator expressing plasmid. The reporter plasmid used was pFR-Luc, which has the firefly luciferase gene under the control of a GAL4 UAS ([…]) containing promoter. The activator expressing plasmids contain yeast GAL4 DNA binding domain (dbd) fusion of either human PPARα ligand binding domain (LBD; a.a. 167-468) or human PPARγ LBD (a.a. 176-479). DNA constructs containing the mouse PPARα or PPARγ LBD fused to the GAL4 DNA binding domain were also used. The two solutions were incubated at room temperature for 5 min, and then combined. The combined solution was incubated at room temperature for approximately 30 min. Cells were washed once with PBS, and 100 μL of transfection mix added to each well. Plates were incubated at 37° C. in a 5% CO2 incubator for 4.5 hr, followed by aspiration of the transfection mix, with plates refed using EMEM complete media (supplemented with 10% FBS, 1× Glutamine). 24 hr post-transfection, plates were treated with the appropriate compounds in EMEM complete media, followed by washing once with PBS and addition of 100 μL 1× reporter lysis buffer/well (Promega) 24 hr after treatment. Plates went through one freeze/thaw cycle prior to analysis. Approximately 10 μL of lysate was added to 100 μL of firefly luciferase substrate, mixed by pipetting, and analyzed on a luminometer for 10 s using the integration function (relative luciferase units/RLU) or on a Microbeta Trilux (luciferase counts per second/LCPS). Each treatment was performed in triplicate, and in multiple, separate experiments.
# [2] = molecular target: T2, Mouse PPARα LBD fusion protein (Mus musculus, UniProt P23204)
# T2 sequence (P23204 239-466): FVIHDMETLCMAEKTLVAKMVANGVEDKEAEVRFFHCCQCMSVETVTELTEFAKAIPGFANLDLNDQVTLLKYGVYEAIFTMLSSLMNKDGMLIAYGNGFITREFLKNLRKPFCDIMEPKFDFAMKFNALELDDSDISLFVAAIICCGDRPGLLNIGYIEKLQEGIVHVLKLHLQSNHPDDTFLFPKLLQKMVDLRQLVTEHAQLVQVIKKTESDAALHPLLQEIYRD
# Method: as §1
# [3] = tested on: Human PPARγ LBD fusion protein
# Method: (§2) Cells were seeded in 24 well plates the day prior to transfection at 5×10^4−2×10^5 cells/well, depending upon cell type. Cells were transfected using Lipofectamine 2000 reagent from Invitrogen. A total of 0.8 μg DNA/well was added to 50 μL of Optimem Reduced Serum media (serum free; Gibco). Lipofectamine 2000 was added (2.5 μL/well) to another tube containing 50 μL of Optimem media. Plasmid DNA was added at a ratio of 4:3 (reporter:activator); where appropriate, salmon sperm DNA was substituted for activator expressing plasmid. […] DNA constructs containing the mouse PPARα or PPARγ LBD fused to the GAL4 DNA binding domain were also used. The two solutions were incubated at room temperature for 5 min, and then combined. The combined solution was incubated at room temperature for approximately 30 min. Cells were washed once with PBS, and 100 μL of transfection mix added to each well. Plates were incubated at 37° C. in a 5% CO2 incubator for 4.5 hr, followed by aspiration of the transfection mix, with plates refed using EMEM complete media (supplemented with 10% FBS, 1× Glutamine). 24 hr post-transfection, plates were treated with the appropriate compounds in EMEM complete media, followed by washing once with PBS and addition of 100 μL 1× reporter lysis buffer/well (Promega) 24 hr after treatment. Plates went through one freeze/thaw cycle prior to analysis. Approximately 10 μL of lysate was added to 100 μL of firefly luciferase substrate, mixed by pipetting, and analyzed on a luminometer for 10 s using the integration function (relative luciferase units/RLU) or on a Microbeta Trilux (luciferase counts per second/LCPS). Each treatment was performed in triplicate, and in multiple, separate experiments.
# [4] = molecular target: T3, Mouse PPARγ LBD fusion protein (Mus musculus, UniProt P37238)
# T3 sequence (P37238 238-503): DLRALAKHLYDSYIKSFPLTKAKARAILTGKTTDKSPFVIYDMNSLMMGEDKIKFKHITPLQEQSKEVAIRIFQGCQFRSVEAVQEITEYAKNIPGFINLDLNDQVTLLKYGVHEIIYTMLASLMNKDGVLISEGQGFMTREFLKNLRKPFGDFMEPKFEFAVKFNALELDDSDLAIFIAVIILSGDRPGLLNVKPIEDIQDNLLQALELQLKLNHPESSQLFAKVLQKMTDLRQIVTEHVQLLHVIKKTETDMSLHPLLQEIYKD
# Method: as §2
# [5] = 100 μM test compound, Table 20b
# [6] = 200 μM test compound, Table 20b
Structure (SMILES),transcription activation potential (luciferase) ± standard deviation ([1]; 1 μM) [LCPS],transcription activation potential (luciferase) ± standard deviation ([1]; 3 μM) [LCPS],transcription activation potential (luciferase) ± standard deviation ([1]; 10 μM) [LCPS],transcription activation potential (luciferase) ± standard deviation ([1]; 30 μM) [LCPS],transcription activation potential (luciferase) ± standard deviation ([1]; 100 μM) [LCPS],transcription activation potential (luciferase) ± standard deviation ([1]; 200 μM) [LCPS],"transcription activation potential (luciferase) ± standard deviation ([2]; 1 μM, Table 20a) [LCPS]","transcription activation potential (luciferase) ± standard deviation ([2]; 3 μM, Table 20a) [LCPS]","transcription activation potential (luciferase) ± standard deviation ([2]; 10 μM, Table 20a) [LCPS]","transcription activation potential (luciferase) ± standard deviation ([2]; 30 μM, Table 20a) [LCPS]","transcription activation potential (luciferase) ± standard deviation ([2]; 100 μM, Table 20a) [LCPS]","transcription activation potential (luciferase) ± standard deviation ([2]; 100 μM, Table 21a) [RLU]","transcription activation potential (luciferase) ± standard deviation ([2]; 200 μM, Table 20a) [LCPS]",transcription activation potential (luciferase) ± standard deviation ([3]; 1 μM test compound) [LCPS],transcription activation potential (luciferase) ± standard deviation ([3]; 3 μM test compound) [LCPS],transcription activation potential (luciferase) ± standard deviation ([3]; 10 μM test compound) [LCPS],transcription activation potential (luciferase) ± standard deviation ([3]; 30 μM test compound) [LCPS],transcription activation potential (luciferase) ± standard deviation ([3]; 100 μM test compound) [LCPS],transcription activation potential (luciferase) ± standard deviation ([3]; 200 μM test compound) [LCPS],"transcription activation potential (luciferase) ± standard deviation ([4]; 1 μM test compound, Table 20b) [LCPS]",other results
"Cc1cccc(C)c1COc1cccc(C(=O)CCC(=O)O)c1 [Compound BI, 4-(3-(2,6-Dimethylbenzyloxy)phenyl)-4-oxobutyric acid]",127.7 ± 7.1,128 ± 70.7,52.7 ± 8.2,55.4 ± 16.2,20.9 ± 13.1,31.1 ± 29.4,14.67 ± 1.08,15.2 ± 2.78,15.1 ± 3.78,10.43 ± 1.81,15.37 ± 6.21,4421 ± 118,18.6 ± 11.66,43.3 ± 11.6,26 ± 4.5,40.1 ± 13.5,22.9 ± 10.3,34.6 ± 15.6,227.3 ± 25.8,2.4 ± 2.26,"transcription activation potential (luciferase) ± standard deviation ([4]; 1 μM, Table 21b): 746 ± 362 RLU; transcription activation potential (luciferase) ± standard deviation ([4]; 3 μM test compound, Table 20b): 2.6 ± 1.41 LCPS; transcription activation potential (luciferase) ± standard deviation ([4]; 3 μM, Table 21b): 174 ± 153 RLU; transcription activation potential (luciferase) ± standard deviation ([4]; 5 μM, Table 21b): 996 ± 855 RLU; transcription activation potential (luciferase) ± standard deviation ([4]; 7 μM, Table 21b): 220 ± 137 RLU; transcription activation potential (luciferase) ± standard deviation ([4]; 10 μM test compound, Table 20b): 2.2 ± 1.57 LCPS; transcription activation potential (luciferase) ± standard deviation ([4]; 10 μM, Table 21b): 479 ± 353 RLU; transcription activation potential (luciferase) ± standard deviation ([4]; 30 μM test compound, Table 20b): 4.9 ± 4.42 LCPS; transcription activation potential (luciferase) ± standard deviation ([4]; 30 μM, Table 21b): 557 ± 639 RLU; transcription activation potential (luciferase) ± standard deviation [4, 5]: 2.63 ± 1.96 LCPS; transcription activation potential (luciferase) ± standard deviation ([4]; 100 μM, Table 21b): 3330 ± 1848 RLU; transcription activation potential (luciferase) ± standard deviation [4, 6]: 65.77 ± 10.55 LCPS"
"Cc1cccc(C)c1COc1cccc(CC(=O)O)c1 [Compound CF, 3-(2,6-Dimethylbenzyloxy)phenylacetic acid]",37 ± 11.5,47 ± 22.8,19.9 ± 7.8,40.2 ± 18.9,19 ± 14.2,12.9 ± 8.3,13.17 ± 7.84,5.63 ± 0.42,153.15 ± 24.4,358.6 ± 5.23,201.5 ± 50.84,41037 ± 5401,106.77 ± 32.53,6.2 ± 0.6,49.4 ± 7.8,141.5 ± 25.9,230.4 ± 97.2,225.2 ± 57.5,280.1 ± 89.7,0.33 ± 0.21,"transcription activation potential (luciferase) ± standard deviation ([2]; 1 μM, Table 21a): 2694 ± 159 RLU; transcription activation potential (luciferase) ± standard deviation ([2]; 3 μM, Table 21a): 4527 ± 740 RLU; transcription activation potential (luciferase) ± standard deviation ([2]; 5 μM, Table 21a): 7188 ± 1753 RLU; transcription activation potential (luciferase) ± standard deviation ([2]; 7 μM, Table 21a): 14325 ± 1032 RLU; transcription activation potential (luciferase) ± standard deviation ([2]; 10 μM, Table 21a): 16680 ± 2432 RLU; transcription activation potential (luciferase) ± standard deviation ([2]; 30 μM, Table 21a): 38105 ± 3133 RLU; transcription activation potential (luciferase) ± standard deviation ([4]; 1 μM, Table 21b): 146 ± 119 RLU; transcription activation potential (luciferase) ± standard deviation ([4]; 3 μM test compound, Table 20b): 10.6 ± 8.74 LCPS; transcription activation potential (luciferase) ± standard deviation ([4]; 3 μM, Table 21b): 579 ± 557 RLU; transcription activation potential (luciferase) ± standard deviation ([4]; 5 μM, Table 21b): 476 ± 527 RLU; transcription activation potential (luciferase) ± standard deviation ([4]; 7 μM, Table 21b): 834 ± 984 RLU; transcription activation potential (luciferase) ± standard deviation ([4]; 10 μM test compound, Table 20b): 17.2 ± 21 LCPS; transcription activation potential (luciferase) ± standard deviation ([4]; 10 μM, Table 21b): 207 ± 107 RLU; transcription activation potential (luciferase) ± standard deviation ([4]; 30 μM test compound, Table 20b): 88.2 ± 33.2 LCPS; transcription activation potential (luciferase) ± standard deviation ([4]; 30 μM, Table 21b): 818 ± 1201 RLU; transcription activation potential (luciferase) ± standard deviation [4, 5]: 45.8 ± 36.9 LCPS; transcription activation potential (luciferase) ± standard deviation ([4]; 100 μM, Table 21b): 237 ± 216 RLU; transcription activation potential (luciferase) ± standard deviation [4, 6]: 93.6 ± 29.7 LCPS"
